Test results taken from US20220162182A1, “KINASE INHIBITOR COMPOUNDS AND COMPOSITIONS AND METHODS OF USE” (ICAHN SCHOOL OF MEDICINE AT MOUNT SINAI, priority 2018, published 2022).
Several values for one entry are separate records, joined by “and”; a condition that tells them apart may be missing. Equal values may be shown once.

Target: T1, DYRK1A (Homo sapiens, UniProt Q13627)
T1 construct: purchased DiscoverX
Experiment: KINOMEscan DYRK1A binding assay (DiscoverX), Kd determination
Conditions: eleven serial three fold dilutions, highest concentration 60 μM, several values in a cell = repeat determinations
Procedure: Compounds were tested for DYRK1A binding activity at DiscoverX. DiscoverX uses proprietary KINOMEscan® Assay (Fabian et al., “A Small Molecule-kinase Interaction Map for Clinical Kinase Inhibitors,” Nat. Biotechnol. 23(3):329-336 (2005), which is hereby incorporated by reference in its entirety). Compounds were screened for DYRK1A activity at a single concentration of 3 μM in duplicates. Similarly, the dissociation constant Kd of the hit compounds from the initial screening was determined at DiscoverX using their proprietary KINOMEscan® Assay. Kd values are determined using eleven serial three fold dilutions with the highest concentration of 60 μM.

| SMILES | Kd |
| --- | --- |
| O=c1[nH]c2ccc(-c3ccc(NCc4ccccc4)nc3)cc2[nH]1 [Compound 11a, 5-(6-(Benzylamino)pyridin-3-yl)-1H-benzo[d]imidazol-2(3H)-one] | 300 nM |
| O=c1[nH]c2ccc(-c3ccc(NCc4ccc(F)cc4)nc3)cc2[nH]1 [Compound 11b, 5-(6-((4-Fluorobenzyl)amino)pyridin-3-yl)-1H-benzo[d]imidazol-2(3H)-one] | 580 nM and 510 nM |
| O=c1[nH]c2ccc(-c3ccc(NCc4ccc(F)cc4)cn3)cc2[nH]1 [Compound 11c, 5-(5-((4-Fluorobenzyl)amino)pyridin-2-yl)-1H-benzo[d]imidazol-2(3H)-one] | 6000 nM |
| Cn1c(=O)[nH]c2ccc(-c3cncc(NCc4ccccc4)c3)cc21 [Compound 12b, 6-(5-(Benzylamino)pyridin-3-yl)-1-methyl-1H-benzo[d]imidazol-2(3H)-one] | 0.82 nM and 1.6 nM |
| Cn1c(=O)[nH]c2cc(-c3cncc(NCc4ccccc4)c3)ccc21 [Compound 12c, 5-(5-(Benzylamino)pyridin-3-yl)-1-methyl-1H-benzo[d]imidazol-2(3H)-one] | 2000 nM |
| O=c1[nH]c2ccc(-c3cncc(NCc4ccccc4)c3)cc2[nH]1 [Compound 13a, 5-(5-(Benzylamino)pyridin-3-yl)-1H-benzo[d]imidazol-2(3H)-one] | 2.3 nM and 2.9 nM and 1.1 nM |
| O=c1[nH]c2ccc(-c3cncc(NCc4ccc(F)cc4)c3)cc2[nH]1 [Compound 13b, 5-(5-((4-Fluorobenzyl)amino)pyridin-3-yl)-1H-benzo[d]imidazol-2(3H)-one] | 2.9 nM and 1.8 nM |
| Cc1ncc(-c2ccc3[nH]c(=O)[nH]c3c2)cc1NCc1ccccc1 [Compound 13c, 5-(5-(Benzylamino)-6-methylpyridin-3-yl)-1H-benzo[d]imidazol-2(3H)-one] | 140 nM |
| Cc1ncc(-c2ccc3[nH]c(=O)[nH]c3c2)cc1NCc1ccc(F)cc1 [Compound 13d, 5-(5-((4-Fluorobenzyl)amino)-6-methylpyridin-3-yl)-1H-benzo[d]imidazol-2(3H)-one] | 240 nM |
| O=C1Cc2cc(-c3cncc(NCc4ccccc4)c3)ccc2N1 [Compound 13e, 5-(5-(Benzylamino)pyridin-3-yl)indolin-2-one] | 1.3 nM and 1.9 nM |
| O=c1[nH]c2ccc(-c3cncc(NCc4ccccc4F)c3)cc2[nH]1 [Compound 30a, 5-(5-((2-Fluorobenzyl)amino)pyridin-3-yl)-1H-benzo[d]imidazol-2(3H)-one] | 1.2 nM |
| O=c1[nH]c2ccc(-c3cncc(NCc4cccc(F)c4)c3)cc2[nH]1 [Compound 30b, 5-(5-((3-Fluorobenzyl)amino)pyridin-3-yl)-1H-benzo[d]imidazol-2(3H)-one] | 1.2 nM |
| O=c1[nH]c2ccc(-c3cncc(NCc4ccccc4Cl)c3)cc2[nH]1 [Compound 30c, 5-(5-((2-Chlorobenzyl)amino)pyridin-3-yl)-1H-benzo[d]imidazol-2(3H)-one] | 1.3 nM |
| O=c1[nH]c2ccc(-c3cncc(NCc4ccc(Cl)cc4)c3)cc2[nH]1 [Compound 30e, 5-(5-((4-Chlorobenzyl)amino)pyridin-3-yl)-1H-benzo[d]imidazol-2(3H)-one] | 23 nM |
| N#Cc1cccc(CNc2cncc(-c3ccc4[nH]c(=O)[nH]c4c3)c2)c1 [Compound 30f, 3-(((5-(2-Oxo-2,3-dihydro-1H-benzo[d]imidazol-5-yl)pyridin-3-yl)amino)methyl)benzonitrile] | 5.8 nM |
| N#Cc1ccc(CNc2cncc(-c3ccc4[nH]c(=O)[nH]c4c3)c2)cc1 [Compound 30g, 4-(((5-(2-Oxo-2,3-dihydro-1H-benzo[d]imidazol-5-yl)pyridin-3-yl)amino)methyl)benzonitrile] | 31 nM |
| O=c1[nH]c2ccc(-c3cncc(NCc4ccc(-c5ccccc5)cc4)c3)cc2[nH]1 [Compound 30h, 5-(5-(([1,1′-Biphenyl]-4-ylmethyl)amino)pyridin-3-yl)-1H-benzo[d]imidazol-2(3H)-one] | 1200 nM |

| SMILES | Kd |
| --- | --- |
| CC(Nc1cncc(-c2ccc3[nH]c(=O)[nH]c3c2)c1)c1ccccc1 (stereo not drawn) [Compound 30j, 5-(5-((1-Phenylethyl)amino)pyridin-3-yl)-1H-benzo[d]imidazol-2(3H)-one] | 0.71 nM and 1.1 nM |
| O=c1[nH]c2ccc(-c3cncc(NCCc4ccccc4)c3)cc2[nH]1 [Compound 30k, 5-(5-(Phenethylamino)pyridin-3-yl)-1H-benzo[d]imidazol-2(3H)-one] | 4.3 nM |
| CC(Nc1cncc(-c2ccc3[nH]c(=O)n(C)c3c2)c1)c1ccccc1 (stereo not drawn) [Compound 30n, 1-Methyl-6-(5-((1-phenylethyl)amino)pyridin-3-yl)-1H-benzo[d]imidazol-2(3H)-one] | 0.81 nM |
| O=c1[nH]c2ccc(-c3cncc(NCCCc4ccccc4)c3)cc2[nH]1 [Compound 30p, 5-(5-((3-Phenylpropyl)amino)pyridin-3-yl)-1H-benzo[d]imidazol-2(3H)-one] | 15 nM |
| Cn1c(=O)[nH]c2ccc(-c3cncc(NCc4ccccc4F)c3)cc21 [Compound 30q, 6-(5-((2-Fluorobenzyl)amino)pyridin-3-yl)-1-methyl-1H-benzo[d]imidazol-2(3H)-one] | 0.86 nM |
| Cn1c(=O)[nH]c2ccc(-c3cncc(NCc4ccccc4Cl)c3)cc21 [Compound 30r, 6-(5-((2-Chlorobenzyl)amino)pyridin-3-yl)-1-methyl-1H-benzo[d]imidazol-2(3H)-one] | 1.3 nM |
| O=c1[nH]c2ccc(-c3cncc(NCc4ccccn4)c3)cc2[nH]1 [Compound 31a, 5-(5-((Pyridin-2-ylmethyl)amino)pyridin-3-yl)-1H-benzo[d]imidazol-2(3H)-one] | 1.2 nM |
| O=c1[nH]c2ccc(-c3cncc(NCc4cccnc4)c3)cc2[nH]1 [Compound 31b, 5-(5-((Pyridin-3-ylmethyl)amino)pyridin-3-yl)-1H-benzo[d]imidazol-2(3H)-one] | 2.1 nM |
| O=c1[nH]c2ccc(-c3cncc(NCc4ccncc4)c3)cc2[nH]1 [Compound 31c, 5-(5-((Pyridin-4-ylmethyl)amino)pyridin-3-yl)-1H-benzo[d]imidazol-2(3H)-one] | 3.9 nM |
| O=c1[nH]c2ccc(-c3cncc(NCc4cccc5ccccc45)c3)cc2[nH]1 [Compound 31d, 5-(5-((Naphthalen-1-ylmethyl)amino)pyridin-3-yl)-1H-benzo[d]imidazol-2(3H)-one] | 28 nM |
| O=c1[nH]c2ccc(-c3cncc(NCc4ccc5ccccc5c4)c3)cc2[nH]1 [Compound 31e, 5-(5-((Naphthalen-2-ylmethyl)amino)pyridin-3-yl)-1H-benzo[d]imidazol-2(3H)-one] | 100 nM |
| NC(=O)c1cccc(CNc2cncc(-c3ccc4[nH]c(=O)[nH]c4c3)c2)c1 [Compound 33a, 3-(((5-(2-Oxo-2,3-dihydro-1H-benzo[d]imidazol-5-yl)pyridin-3-yl)amino)methyl)benzamide] | 9.9 nM |
| NC(=O)c1ccc(CNc2cncc(-c3ccc4[nH]c(=O)[nH]c4c3)c2)cc1 [Compound 33b, 4-(((5-(2-Oxo-2,3-dihydro-1H-benzo[d]imidazol-5-yl)pyridin-3-yl)amino)methyl)benzamide] | 14 nM |
| N[C@H](Cc1ccccc1)c1cncc(-c2ccc3[nH]c(=O)[nH]c3c2)c1 [Compound 65a, (R)-5-(5-(1-Amino-2-phenylethyl)pyridin-3-yl)-1H-benzo[d]imidazol-2(3H)-one] | 3.2 nM |
| N[C@@H](Cc1ccccc1)c1cncc(-c2ccc3[nH]c(=O)[nH]c3c2)c1 [Compound 65b, (S)-5-(5-(1-Amino-2-phenylethyl)pyridin-3-yl)-1H-benzo[d]imidazol-2(3H)-one] | 15 nM |
| C[C@@H](Nc1cncc(-c2ccc3[nH]c(=O)[nH]c3c2)c1)c1ccccc1 [Compound 68a, (R)-5-(5-((1-Phenylethyl)amino)pyridin-3-yl)-1H-benzo[d]imidazol-2(3H)-one] | 0.59 nM |
| C[C@H](Nc1cncc(-c2ccc3[nH]c(=O)[nH]c3c2)c1)c1ccccc1 [Compound 68b, (S)-5-(5-((1-Phenylethyl)amino)pyridin-3-yl)-1H-benzo[d]imidazol-2(3H)-one] | 7.5 nM |

Target: T2, DYRK1/DYRK1A (Homo sapiens, UniProt Q13627)
T2 construct: purchased Reaction Biology Corp
Experiment: DYRK1/DYRK1A IC50 assay (Reaction Biology Corp.)
Format: biochemical
Conditions: DYRK1/DYRK1A assay from Reaction Biology Corp.

| SMILES | IC50 [nM] |
| --- | --- |
| O=c1[nH]c2ccc(-c3cncc(NCCCc4ccccc4)c3)cc2[nH]1 [Compound 30p, 5-(5-((3-Phenylpropyl)amino)pyridin-3-yl)-1H-benzo[d]imidazol-2(3H)-one] | 1.83 |
| Cn1c(=O)[nH]c2ccc(-c3cncc(NCc4ccccc4F)c3)cc21 [Compound 30q, 6-(5-((2-Fluorobenzyl)amino)pyridin-3-yl)-1-methyl-1H-benzo[d]imidazol-2(3H)-one] | 0.3 |
| Cn1c(=O)[nH]c2ccc(-c3cncc(NCc4ccccc4Cl)c3)cc21 [Compound 30r, 6-(5-((2-Chlorobenzyl)amino)pyridin-3-yl)-1-methyl-1H-benzo[d]imidazol-2(3H)-one] | 0.1 |
| N[C@H](Cc1ccccc1)c1cncc(-c2ccc3[nH]c(=O)[nH]c3c2)c1 [Compound 65a, (R)-5-(5-(1-Amino-2-phenylethyl)pyridin-3-yl)-1H-benzo[d]imidazol-2(3H)-one] | 3.98 |
| N[C@@H](Cc1ccccc1)c1cncc(-c2ccc3[nH]c(=O)[nH]c3c2)c1 [Compound 65b, (S)-5-(5-(1-Amino-2-phenylethyl)pyridin-3-yl)-1H-benzo[d]imidazol-2(3H)-one] | 23.2 |
| C[C@@H](Nc1cncc(-c2ccc3[nH]c(=O)[nH]c3c2)c1)c1ccccc1 [Compound 68a, (R)-5-(5-((1-Phenylethyl)amino)pyridin-3-yl)-1H-benzo[d]imidazol-2(3H)-one] | 0.21 |
| C[C@H](Nc1cncc(-c2ccc3[nH]c(=O)[nH]c3c2)c1)c1ccccc1 [Compound 68b, (S)-5-(5-((1-Phenylethyl)amino)pyridin-3-yl)-1H-benzo[d]imidazol-2(3H)-one] | 2.18 |
| CC(C)(C)OC(=O)NCCOc1cccc(-n2c(=O)[nH]c3ccc(-c4cncc(NCc5ccccc5)c4)cc32)c1 [Compound 611, tert-Butyl (2-(3-(6-(5-(benzylamino)pyridin-3-yl)-2-oxo-2,3-dihydro-1H-benzo[d]imidazol-1-yl)phenoxy)ethyl)carbamate] | 103 |
